What was measured:
[1] = target: T1, aminopeptidase purifiée du rein de lapin (Oryctolagus cuniculus, UniProt P15541); experiment: Inhibitory power on aminopeptidase, substrate [3H]Leu5-enkephalin; type: biochemical; details: purified rabbit kidney enzyme, [3H]Leu5-enkephalin substrate; read-out: Aminopeptidase(M), concentrations inhibitrices 50 % (converted)
T1 construct: purifiée du rein de lapin; from tissue; host or cells: rabbit kidney
T1 sequence (P15541 1-966): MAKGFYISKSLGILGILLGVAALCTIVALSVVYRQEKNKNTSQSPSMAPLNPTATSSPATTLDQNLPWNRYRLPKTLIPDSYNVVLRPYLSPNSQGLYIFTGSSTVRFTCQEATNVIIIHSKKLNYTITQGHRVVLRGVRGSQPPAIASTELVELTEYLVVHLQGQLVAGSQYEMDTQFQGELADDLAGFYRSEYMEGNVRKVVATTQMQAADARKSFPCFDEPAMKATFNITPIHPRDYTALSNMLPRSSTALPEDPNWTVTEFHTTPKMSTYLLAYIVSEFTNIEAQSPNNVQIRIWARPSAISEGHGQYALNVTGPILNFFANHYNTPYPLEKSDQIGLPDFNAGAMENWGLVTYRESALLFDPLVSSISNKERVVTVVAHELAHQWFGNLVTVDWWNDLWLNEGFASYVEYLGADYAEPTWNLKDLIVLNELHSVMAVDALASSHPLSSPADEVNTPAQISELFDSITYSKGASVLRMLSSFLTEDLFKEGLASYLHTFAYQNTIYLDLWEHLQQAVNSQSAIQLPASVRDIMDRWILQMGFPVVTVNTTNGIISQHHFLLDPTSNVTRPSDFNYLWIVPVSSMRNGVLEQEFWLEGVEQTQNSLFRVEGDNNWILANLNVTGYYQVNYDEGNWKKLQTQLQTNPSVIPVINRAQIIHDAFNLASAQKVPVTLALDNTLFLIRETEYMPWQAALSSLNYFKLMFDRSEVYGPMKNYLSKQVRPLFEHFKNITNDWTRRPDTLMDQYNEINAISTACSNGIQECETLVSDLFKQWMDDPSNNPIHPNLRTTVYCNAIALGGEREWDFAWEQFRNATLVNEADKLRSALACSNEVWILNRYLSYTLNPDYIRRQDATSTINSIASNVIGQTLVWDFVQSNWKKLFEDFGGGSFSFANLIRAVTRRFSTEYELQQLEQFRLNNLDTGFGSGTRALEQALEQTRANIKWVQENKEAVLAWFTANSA
From the text: Le pouvoir inhibiteur est mesuré sur l'aminopeptidase purifiée du rein de lapin en suivant le protocole décrit dans la littérature (Romaine Bouboutou, Gilles Waksman, Joceyline Deim, Marie-Claude Fournié-Zaluski and Bernard P. Roques, Life Sciences, vol. 35, pp. 1023-1030, 1984).
Le dosage est conduit d'une manière identique au précédent, en utilisant la [³H]Leu⁵-enképhaline à la place de la [³H]D-Ala²-Leu⁵-enképhaline comme substrat.
(§1) L'activité des différents produits est exprimée en concentrations inhibitrices 50 %.

[2] = target: T2, enképhalinase purifiée du rein de lapin (Oryctolagus cuniculus, UniProt P08049); experiment: Inhibitory power on enkephalinase (endopeptidase), substrate [3H]D-Ala2-Leu5 enkephalin; type: biochemical; details: purified rabbit kidney enzyme, 20 min at 25°C, Tris-HCl pH 7.4; read-out: Enképhalinase(M), concentrations inhibitrices 50 % (converted)
T2 construct: l'enképhalinase purifiée du rein de lapin; from tissue; host or cells: rabbit kidney
T2 sequence (P08049 1-750): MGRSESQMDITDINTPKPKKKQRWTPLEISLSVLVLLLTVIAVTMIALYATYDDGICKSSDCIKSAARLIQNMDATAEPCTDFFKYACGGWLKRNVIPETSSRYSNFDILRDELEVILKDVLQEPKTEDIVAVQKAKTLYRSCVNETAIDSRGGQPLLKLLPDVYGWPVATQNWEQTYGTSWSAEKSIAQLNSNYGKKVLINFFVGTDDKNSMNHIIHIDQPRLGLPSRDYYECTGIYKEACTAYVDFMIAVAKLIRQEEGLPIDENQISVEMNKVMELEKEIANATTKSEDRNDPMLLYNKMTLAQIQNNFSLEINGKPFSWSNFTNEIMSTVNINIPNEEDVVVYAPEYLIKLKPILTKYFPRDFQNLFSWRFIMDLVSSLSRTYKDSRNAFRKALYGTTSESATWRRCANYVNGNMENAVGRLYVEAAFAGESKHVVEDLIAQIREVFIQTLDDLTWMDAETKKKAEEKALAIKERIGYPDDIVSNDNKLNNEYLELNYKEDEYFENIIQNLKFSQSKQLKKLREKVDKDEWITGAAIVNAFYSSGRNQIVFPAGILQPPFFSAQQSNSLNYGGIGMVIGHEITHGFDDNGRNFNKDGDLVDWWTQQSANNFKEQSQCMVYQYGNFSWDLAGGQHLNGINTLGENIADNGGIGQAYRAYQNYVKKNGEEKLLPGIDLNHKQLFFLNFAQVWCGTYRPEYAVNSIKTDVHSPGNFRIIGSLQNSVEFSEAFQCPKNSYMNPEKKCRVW
Description: Le pouvoir inhibiteur est déterminé sur de l'enképhalinase purifiée du rein de lapin en suivant le protocole décrit dans la littérature (Llorens, C., B. Malfroy, J.C. Schwartz, G. Gacel, B.P. Roques et al., 1982, J. Neurochem. 39, 1081).
Après une pré-incubation de 15 minutes à 25°C, une aliquote de protéines est incubée pendant 20 minutes à 25°C en présence de 20 nanomoles de [³H]D-Ala²-Leu⁵ enképhaline et du produit à tester dans le tampon Tris-HCl (pH 7.4) 50 mM. On arrête la réaction par addition d'HCl 0.2 N. Le métabolite tritié [³H]Tyr-D-Ala-Gly est séparé de la D-Ala²-Leu⁵-enképhaline par chromatographie sur colonne de porapak.
as §1

[3] = target: T3, dipeptidylaminopeptidase purifiée à partir du cerveau de rat (Rattus norvegicus, UniProt O55096); experiment: Inhibitory power on dipeptidylaminopeptidase, substrate [3H]Leu5-enkephalin; type: biochemical; details: enzyme purified from rat brain, [3H]Leu5-enkephalin substrate; read-out: Dipeptidyla-minopeptida-se(M), concentrations inhibitrices 50 % (converted)
T3 construct: purifiée à partir du cerveau de rat; from tissue; host or cells: rat brain
T3 sequence (O55096 2-738 limits assumed): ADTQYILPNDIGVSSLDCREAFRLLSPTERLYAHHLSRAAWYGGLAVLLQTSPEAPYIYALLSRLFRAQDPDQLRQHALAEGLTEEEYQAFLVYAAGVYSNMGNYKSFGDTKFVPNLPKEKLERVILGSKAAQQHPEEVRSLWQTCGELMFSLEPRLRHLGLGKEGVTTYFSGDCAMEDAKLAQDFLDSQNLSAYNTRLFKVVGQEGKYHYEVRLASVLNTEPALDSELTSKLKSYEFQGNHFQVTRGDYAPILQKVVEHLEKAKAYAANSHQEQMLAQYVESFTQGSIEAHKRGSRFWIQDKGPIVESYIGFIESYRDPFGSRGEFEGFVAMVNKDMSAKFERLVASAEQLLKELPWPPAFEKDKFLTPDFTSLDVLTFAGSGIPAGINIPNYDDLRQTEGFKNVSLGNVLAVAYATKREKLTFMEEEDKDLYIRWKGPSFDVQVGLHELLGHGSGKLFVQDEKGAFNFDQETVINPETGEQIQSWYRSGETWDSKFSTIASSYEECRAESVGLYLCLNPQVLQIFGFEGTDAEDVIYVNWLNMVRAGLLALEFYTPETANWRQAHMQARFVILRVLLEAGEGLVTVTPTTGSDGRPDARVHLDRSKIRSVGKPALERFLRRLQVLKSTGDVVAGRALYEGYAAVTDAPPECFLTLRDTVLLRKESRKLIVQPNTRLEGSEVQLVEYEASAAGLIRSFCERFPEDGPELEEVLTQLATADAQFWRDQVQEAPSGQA
From the text: Le pouvoir inhibiteur est mesuré sur la dipeptidylaminopeptidase purifiée à partir du cerveau de rat en suivant le protocole décrit (Romaine Bouboutou, Gilles Waksman, Joceyline Deim, Marie-Claude Fournié-Zaluski and Bernard P. Roques, Life Sciences, vol. 35, pp. 1023-1030, 1984).. On utilise également la [³H]Leu⁵-enképhaline comme substrat.
as §1

[4] = system: souris; experiment: Hot plate test (licking and jump reflex, plate at 55°C); type: in vivo; details: mouse, intracerebroventricular, 50 )g, plate 55°C; for Saut: cut off 240 s
Description: Il concerne le réflexe de lèchement et de saut de la souris sur une plaque chauffée à 55°C selon la méthode de Jacob et coll. (Arch. Int. Pharmacodyn. 122, 287-300, 1959 : 133, 296-300, 1961).
Administrés par voie intracérébroventriculaire chez la souris, les inhibiteurs testés présentent un effet propre à la fois sur le temps de latence du saut et sur celui des lèchements. Ces effets sont reversés par la naloxone (antagoniste morphinique).
Le cut off correspond au moment où la souris est enlevée si elle n'a pas sauté ;

IC50 [1] | IC50 [2] | IC50 [3] | Compound | Lèchements ([4]; cut off 30 s) | Saut [4] | Lèchements (s) ([4]; cut off 30 s)
1e-05 M | 1.4e-09 M | 8e-07 M | O=C(O)CCC(=O)N[C@@H](CC(=O)NO)Cc1ccccc1 [compound 8, N[carboxy-3 oxo-1 propyl) amino]-3 phenyl-4 (Nʹ[hydroxyamino]-1 oxo-1 butane] | – | – | –
8e-08 M | 1.5e-09 M | 1e-09 M | N[N-hydroxyamino) carbonyl-3 benzyl-2 oxo-1 propyl] phényl-2 β-alanine [compound 6] | – | – | –
7e-08 M | 5e-10 M | 2e-09 M | Acide [N[N(hydroxyamino) carbonyl-1 phényl-3] propyl]-2 carboxamido-2 cyclohéxanoïque [compound 11] | 30 s | 240 s | –
1e-05 M | 9e-10 M | 1.8e-07 M | CC(CC(=O)O)C(=O)N[C@@H](CC(=O)NO)Cc1ccccc1 (stereo partly shown) [compound 9] | – | – | –
2e-08 M | 2e-09 M | 5e-10 M | O=C(O)C[C@H](Cc1ccccc1)NC(=O)[C@@H](CC(=O)NO)Cc1ccccc1 [compound 5, N[N(hydroxy)aminocarbonyl-3 benzyl-2 oxo-1 propyl] benzyl-3 β alanine] | – | – | –
5e-07 M | 2e-09 M | 3e-08 M | O=C(O)CCNC(=O)C(CC(=O)NO)Cc1ccccc1 (racemic) [compound 1, N[N(hydroxy)amino-carbonyl-3 benzyl-2 Oxo-1 propyl] β-alanine] | – | – | –
4e-06 M | 5e-10 M | 8e-07 M | CC(CC(=O)NC(CC(=O)NOCc1ccccc1)Cc1ccccc1)C(=O)O (stereo not shown) [compound 10] | – | – | –
4e-07 M | 2e-09 M | 2e-08 M | CC(CNC(=O)C(CC(=O)NO)Cc1ccccc1)C(=O)O (stereo not drawn) [compound 3, N[N(hydroxy)aminocarbonyl-3 benzyl-2 oxo-1 propyl] methyl-2 β alanine] | – | – | –
3e-07 M | 5e-09 M | 5e-10 M | CC(CC(=O)O)NC(=O)C(CC(=O)NO)Cc1ccccc1 (stereo not drawn) [compound 2, N[N(hydroxy)aminocarbonyl-3 benzyl-2 oxo-1 propyl] methyl-3 β alanine] | – | – | –
5e-08 M | 4e-09 M | 1.5e-09 M | Acide N[(hydroxy amino carbonyl)-3 benzyl-2 oxo-1 propyl] amino-2 cyclohéxane carboxylique [compound 7] | – | 240 s | 26,2 s

— patent EP0262053A2, “Amino-acid derivatives, their preparation and pharmaceutical compositions containing them” (CENTRE NATIONAL DE LA RECHERCHE SCIENTIFIQUE (CNRS), priority 1986, dated 1988)
